# Assay results published in US20220193209A1, “COMPOSITIONS AND METHODS FOR REACTIVATING LATENT IMMUNODEFICIENCY VIRUS AND/OR TREATING IMMUNODEFICIENCY VIRUS INFECTION” (The J. David Gladstone institutes, a testamentary trust …, priority 2019, published 2022).
# pIC50: −log10 of the molar value.
# Legend:
# Smyd2 = Smyd2 (Homo sapiens, UniProt Q9NRG4); settings: SMYD2, substrate competitive; cited from earlier work
# J-Lat cells = test: Cell viability of J-Lat cells by flow cytometry; type: cell-based; settings: J-Lat
# Description: (§1) FIG. 3, Panel A, depicts results of treatment of a J-Lat cell line 5A8 with increasing concentrations (1-10000 nM) of AS1842856 for 24, 48 and 72 h. HIV-GFP mRNA reactivation was assessed by RT-qPCR and normalized to RPL13A mRNA. Data represent average SD of three independent experiments. p-value relative to the control at each time point. FIG. 3, Panel B, depicts cell viability assessed by flow cytometry at 72 h of the same experiment as in A. Cell viability was measured by gating on both the live population at the forward scatter (FSC) and side scatter (SSC) plot and then the viable cells after staining with the viability dye. FIG. 3, Panel C, depicts results of treatment of J-Lat cell lines A2 and A72 with increasing concentrations of AS1842856 for 24, 48 and 72 h. HIV-GFP reactivation (bars) and cell viability (dots) were analyzed by FACS. HIV-GFP reactivation is reported as a percentage of GFP-expressing cells (% GFP+ cells). Data represent average f SD of at least three independent experiments. FIG. 3, Panel D, depicts the same experiments as in FIG. 3, Panel C, but performed in different J-Lat cell lines 5A8, 6.3, 11.1 and 15.4. Data represent average f SD of at least three independent experiments. 10 ng/mL TNFα was used as control. FIG. 3 Panel E depicts results of treatment of J-Lat cell lines 5A8, 6.3, 11.1 and 15.4 for 72 h with increasing concentrations of both AS1842856 (Y-axis) and TNFα (X-axis) alone or in combination and analyzed by FACS. Calculation of synergy for drug combinations using the Bliss independence model applied to the HIV-GFP reactivation measured as a percentage of GFP-expressing cells (% GFP+ cells).
# FIG. 10, Panels A-F depict results of a J-Lat cell line 5A8 treated with different concentrations of inhibitors. FIG. 10, Panel A, depicts results for a J-Lat cell line A58 that was treated with increasing concentrations of A-92 (GCN2 inhibitor) in combination with 1000 nM AS1842856 (72 h) or 10 ng/mL TNFα (24 h). HIV-GFP reactivation was analyzed by FACS and relativized to the control condition. Histogram plots of percent live cells for each drug treatment are shown. FIG. 10, Panel B, depicts the same experiment as in FIG. 10, Panel A, but cells were treated with increasing concentrations of PKR inhibitor (PKRi). Histogram plots representing viability are also shown. Data are represented by mean±SD of three different […]. […] FIG. 10, Panel D, depicts a J-Lat cell line A58 that was treated with increasing concentrations of Ionomycin (0.01, 0.1, 0.5, 1 μM) for 24, 48 and 72 hr. HIV-GFP reactivation and cell viability were analyzed by FACS. FIG. 10, Panel E, depicts a J-Lat cell line 5A8 that was treated for 72 h with increasing concentrations of both Fenretinide (Y-axis) and Ionomycin (X-axis) alone or in combination and analyzed by FACS. HIV-GFP reactivation is reported as a percentage of GFP-expressing cells (% GFP+ cells). FIG. 10, Panel F, depicts a J-Lat cell line 5A8 that was also treated for 72 h with increasing concentrations of both Thapsigargin (Y-axis) and Cyclosporin A (X-axis) alone or in combination and analyzed by FACS. HIV-GFP reactivation is again reported as a percentage of GFP-expressing cells (% GFP+ cells).
# [1] = test system: latent HIV-1 provirus in J-Lat cells; test: HIV-GFP reactivation in J-Lat cell lines (RT-qPCR, FACS); type: cell-based; settings: for HIV-1 reactivation (HIV-GFP): ER stress inducers, 24, 48 and 72 h; for effect on TNFα-mediated HIV reactivation: with 10 ng/mL TNFα (24 h); for effect on AS1842856-induced HIV reactivation: with 1000 nM AS1842856 (72 h)
# Description: Total RNA from samples was extracted using the Direct-zol RNA kit (R2060; Zymogen). cDNA was generated using 500 ng for CD4^+ T cells or 1000 ng of total RNA for J-Lats with Superscript III Reverse transcription (18080-044; ThermoFisher) and oligo(dT) (18418-012; ThermoFisher). Quantitative RT-PCR was carried out using Maxima SYBR Green qPCR Master Mix (Thermo Scientific) on SDS 2.4 software (Applied Biosystems) in a total volume of 12 μL. The SYBR green qPCR reactions contained 5 μl of 2× Maxima SYBR green/Rox qPCR Master Mix (K0221; ThermoFisher), 5 μl of diluted cDNA, and 1 nmol of both forward and reverse primers. The reactions were run using the following conditions: 50° C. for 2 min and 95° C. for 10 min, followed by 40 cycles of 95° C. for 5 s and 62° C. for 30 s. See Table 1 below for a qRT-PCR primer list. […] Dissociation curve analysis was performed after the end of the PCR to confirm the presence of a single and specific product. All qPCRs were independently repeated at least three times, averaged and compared using standard deviation (±SD).
# The J-Lat clonal cell lines are Jurkat cells that contain a stably integrated, latent HIV-1 (HXB) Δenv provirus with a GFP reporter gene in place of the nef gene (Jordan, A. et al. EMBO J. 22, 1868-1877 (2003)). In this system, reactivation from established latency can be monitored through GFP expression.
# as §1, with “HIV-GFP” for “FIG. 3, Panel A, depicts results of treatment of a J-Lat cell line 5A8 with increasing concentrations (1-10000 nM) of AS1842856 for 24, 48 and 72 h. HIV-GFP”, “FIG. 3, Panel C, depicts results of treatment of J-Lat cell lines A2 and A72 with increasing concentrations of AS1842856 for 24, 48 and 72 h.” left out, “FIG. 3 Panel E depicts results of treatment of J-Lat cell lines 5A8, 6.3, 11.1 and 15.4 for 72 h with increasing concentrations of both AS1842856 (Y-axis) and TNFα (X-axis) alone or in combination and analyzed by FACS.” left out
# Chromatin was prepared from J-Lat A2 and 5A8 cells, in which the LTR was stimulated by 1000 nM AS1842856 treatment, TNFα or which were left untreated/DMSO. […] HIV-GFP reactivation was analyzed by FACS and relativized to the control condition. […] Data represent average SD of 3-6 independent experiments. […] HIV-GFP reactivation was analyzed by FACS. […] HIV-GFP reactivation and cell viability were analyzed by FACS. Data were mean±SD of three independent experiments.
# HIV LTR = test: Chromatin immunoprecipitation (ChIP) at the HIV LTR in J-Lat cells; type: cell-based, HIV-1
# Description: J-Lat A2 and A72 cells were treated with TNFα (10 ng/ml) for 18 h. Cells were fixed with 1% formaldehyde (v/v) in fixation buffer (1 mM EDTA, 0.5 mM EGTA, 50 mM Hepes, pH 8.0, 100 mM NaCl), and fixation was stopped after 10 min by addition of glycine to 125 mM. The cell membrane was lysed for 15 min on ice (5 mM Pipes, pH 8.0, 85 mM KCl, 0.5% NP40, protease inhibitors). After washing with nuclear swell buffer (25 mM HEPES, pH 7.5, 4 mM KCl, 1 Mm DTT, 0.5% NP-40, 0.5 mM PMSF) and micrococcal nuclease (MNase) digestion buffer (20 mM Tris pH 7.5, 2.5 mM CaCl2), 5 mM NaCl, 1 mM DTT, 0.5% NP-40), the pellet was resuspended in MNase buffer (15 mM Tris-HCl, pH 7.5, 5 mM MgCl2, 1 mM CaCl2), and 25 mM NaCl). Subsequently, samples were incubated with MNase (New England Biolabs) for 10 min at RT. The reaction was quenched with 0.5 M EDTA and incubated on ice for 5 min. Cells were lysed (1% SDS, 10 mM EDTA, 50 mM Tris-HCl, pH 8.1, protease inhibitors), and chromatin DNA was sheared to 200-1000-bp average size through sonication (Ultrasonic Processor CP-130, Cole Parmer). Cellular debris was pelleted, and the supernatant was recovered. Protein A/G Sepharose beads were blocked with single-stranded salmon sperm DNA and BSA, washed and resuspended in immunoprecipitation buffer. Blocked protein A/G Sepharose beads were added to the digested chromatin fractions and rotated at 4° C. for 2 h to preclear chromatin. Lysates were incubated overnight at 4° C. with 5 μg of FOXO1, RelA, histone H4, H4K20me1, H4K20me2, H4K20me3 antibodies, or IgG control. After incubation with protein A/G agarose beads for 2 h and washing three times with low salt buffer (0.1% SDS, 1% Triton X-100, 2 mM EDTA, 20 mM Tris-HCl, pH 8.1, 150 mM NaCl), one time with high salt buffer (0.1% SDS, 1% Triton X-100, 2 mM EDTA, 20 mM Tris-HCl, pH 8.1, 500 mM NaCl) and twice with TE-buffer (1 mM EDTA, 10 mM Tris-HCl, pH 8.1), chromatin was eluted and recovered with Agencourt AMPure XP beads (Beckman Coulter). Bound chromatin and input DNA were treated with RNase H (New England Biolabs) and Proteinase K (Sigma-Aldrich) at 37° C. for 30 min. Immunoprecipitated chromatin was quantified by real-time PCR using the Maxima SYBR Green qPCR Master Mix (Thermo Scientific) and the ABI 7700 Sequence Detection System (Applied Biosystems). The SDS 2.4 software (Applied Biosystems) was used for analysis. The specificity of each PCR reaction was confirmed by melting curve analysis using the Dissociation Curve software (Applied Biosystems). All chromatin immunoprecipitations and qPCRs were repeated at least three times, and representative results were shown.
# Because ATF4 can be recruited to the HIV LTR (Jiang, G. et al. Downloaded from. MBio 8, 1518-1534 (2018)) and the related human T-cell leukemia virus type 1 (HTLV-1) Reddy, T. et al. Oncogene 14, 2785-2792 (1997)), chromatin immunoprecipitation (ChIP) experiments were performed to test whether ATF4 binds the HIV LTR in response to FOXO1 inhibition. While low levels of ATF4 bound HIV LTR chromatin in untreated J-Lat cells, its recruitment was 3-fold enriched after AS1842856 treatment (FIG. 9, Panel A). […] The nuclear factor of activated T cells (NFAT) can occupy the NF-κB binding sites in the HIV LTR, and is activated through calcium mobilization after T cell activation rather than protein kinase C activation as for NF-κB. […]
# Smyd2, sequence (Q9NRG4 whole entry, species assumed): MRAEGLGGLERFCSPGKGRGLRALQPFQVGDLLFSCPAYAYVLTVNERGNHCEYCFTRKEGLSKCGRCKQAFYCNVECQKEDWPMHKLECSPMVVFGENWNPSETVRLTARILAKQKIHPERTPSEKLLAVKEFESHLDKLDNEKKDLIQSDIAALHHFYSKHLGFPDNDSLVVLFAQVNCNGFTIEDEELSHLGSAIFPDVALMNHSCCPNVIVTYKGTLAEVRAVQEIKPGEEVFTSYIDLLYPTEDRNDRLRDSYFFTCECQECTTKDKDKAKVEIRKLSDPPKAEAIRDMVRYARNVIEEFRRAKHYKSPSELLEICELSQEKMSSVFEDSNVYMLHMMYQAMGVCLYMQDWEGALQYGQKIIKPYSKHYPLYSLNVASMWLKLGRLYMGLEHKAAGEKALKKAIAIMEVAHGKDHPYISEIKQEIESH
compound,measurement,setting,value
N#Cc1cc(C(=O)NCCCN2CCCC2)cc(-c2ccccc2N2CCN(CCc3c[nH]c4ccccc34)CC2)c1 [AZ391],pIC50,Smyd2,7.21
C[C@H]1CCC/C=C/[C@@H]2C[C@H](O)C[C@H]2[C@H](O)/C=C/C(=O)O1 [Brefeldin A],cellular toxicity,J-Lat cells; ER stress inducers,dose-dependent levels of cellular toxicity
same,HIV-1 reactivation (HIV-GFP),[1]; J-Lat,HIV-1 reactivation
Cc1cccc(CC(=O)N2CCc3c2ccc(-c2cn(C)c4ncnc(N)c24)c3F)n1 [PERK inhibitor],effect on TNFα-mediated HIV reactivation,[1]; J-Lat,not affected
same,suppression of AS1842856-mediated HIV reactivation,"[1]; J-Lat, with 1000 nM AS1842856",~50%
same,effect on AS1842856-induced HIV reactivation,[1]; J-Lat,reduced
O=C1Nc2ccc3ncsc3c2/C1=C/c1cnc[nH]1 [PKR inhibitor],effect on TNFα-mediated HIV reactivation,[1]; J-Lat,diminished
same,effect on AS1842856-induced HIV reactivation,[1]; J-Lat,not
CC1=C(/C=C/C(C)=C/C=C/C(C)=C/C(=O)Nc2ccc(O)cc2)C(C)(C)CCC1 [fenretinide],cellular toxicity,J-Lat cells; ER stress inducers,dose-dependent levels of cellular toxicity
same,cellular toxicity,"J-Lat cells; fenretinide 0.5 μM, alone or with ionomycin",nontoxic
same,HIV-1 reactivation (HIV-GFP),[1]; J-Lat,best reactivation
C/C=C(/C)C(=O)O[C@H]1C(C)=C2[C@H]([C@@H]1OC(=O)CCCCCCC)[C@@](C)(OC(C)=O)C[C@H](OC(=O)CCC)[C@@]1(O)[C@H]2OC(=O)[C@@]1(C)O [thapsigargin],cellular toxicity,J-Lat cells; ER stress inducers,dose-dependent levels of cellular toxicity
same,HIV-1 reactivation (HIV-GFP),[1]; J-Lat,HIV-1 reactivation
TNFα,RelA recruitment to the HIV LTR,HIV LTR,significantly enriched
same,time of maximal activation,"[1]; J-Lat 5A8, GFP mRNA",24 h
same,GFP expression,"[1]; four J-Lat clonal cell lines, as early as 24 hours",induced GFP expression
